Entries after “also recorded” stand apart in the source; their conditions may differ.
Legend:
A549/ATCC = assay: NCI60 screening, Non-Small Cell Lung Cancer, A549/ATCC; format: cell-based, human
EKVX = assay: NCI60 screening, Non-Small Cell Lung Cancer, EKVX; format: cell-based, human
NCI-H226 = assay: NCI60 screening, Non-Small Cell Lung Cancer, NCI-H226; format: cell-based, human
COLO 205 = assay: NCI60 screening, Colon Cancer, COLO 205; format: cell-based, human
HCT-15 = assay: NCI60 screening, Colon Cancer, HCT-15; format: cell-based, human
KM12 = assay: NCI60 screening, Colon Cancer, KM12; format: cell-based, human
SW-620 = assay: NCI60 screening, Colon Cancer, SW-620; format: cell-based, human
SNB-75 = assay: NCI60 screening, CNS Cancer, SNB-75; format: cell-based, human
SK-MEL-28 = assay: NCI60 screening, Melanoma, SK-MEL-28; format: cell-based, human
UACC-257 = assay: NCI60 screening, Melanoma, UACC-257; format: cell-based, human
UACC-62 = assay: NCI60 screening, Melanoma, UACC-62; format: cell-based, human
NCl/ADR-RES = assay: NCI60 screening, Ovarian Cancer, NCl/ADR-RES; format: cell-based, human
DU-145 = assay: NCI60 screening, Prostate Cancer, DU-145; format: cell-based, human
[1] = system: PC-3 prostate cancer cells; assay: MTT assay of PC-3 cell viability; format: cell-based; conditions: MTT assay, 24, 48 and 72 h; comparison in words
Protocol: Each data point represents means±S.D. (n=6). The activity of OSU-A9M versus its parent compound A9 ([1-(3′-nitro-4′-chlorobenzenesulfonyl)-1H-indol-3-yl]-methanol) and its fluorinated counterpart OSU-A9F ([1-(4-Chloro-3-nitro-benzenesulfonyl)-5-fluoro-1H-indol-3-yl])-methanol in suppressing the cell viability of PC-3 prostate cancer cells was compared using the MTT [3-(4,5-dimethylthiazol-2-yl)-2,5-diphenyl-2H-tetrazolium bromide] assay. Cancer cells and PrECs were grown in 5% FBS-supplemented RPMI 1640 medium or 5% FBS-supplemented prostate epithelial growth medium, respectively, in 96-well, flat-bottomed plates for 24 h, and then exposed to various concentrations of test agents in the same medium for the indicated time intervals. Controls received DMSO vehicle at a concentration equal to that in drug-treated cells. At the end of the treatment, the medium was removed, replaced by 200 μL of 0.5 mg/mL of MTT in the same medium, and cells were incubated in the CO2 incubator at 37° C. for 2 h. Supernatants were removed from the wells, and the reduced MTT dye was solubilized in 200 μL/well DMSO. Absorbance at 570 nm was determined on a plate reader.

PC-3 xenograft tumor = PC-3 xenograft tumor growth in nude mice, oral gavage; format: in vivo; conditions: after 7 weeks, P<0.05
Protocol: FIG. 2 provides three graphs (A-C) showing the in vivo effects of OSU-A9M (C) versus OSU-A9 (A) and OSU-A9 F (B), each at 25 and 50 mg/kg per day by oral gavage, on suppressing PC-3 xenograft tumor growth in nude mice (n=6).
The efficacy studies were therefore repeated with OSU-A9M and OSU-A9F, following 42 days and 49 days treatment, respectively, versus OSU-A9 with 49-day treatment.
In all three treatments, the body weights of drug-treated mice were not affected. No signs of overt toxicity were observed.

[2] = Homo sapiens, read-out: LC50 (the source's name)

Structure (SMILES): Cc1ccc2c(c1)c(CO)cn2S(=O)(=O)c1ccc(Cl)c([N+](=O)[O-])c1 [OSU-A9M, [1-(4-chloro-3-nitro-benzenesulfonyl)-5-methyl-1H-indol-3-yl]-methanol]
- TGI (A549/ATCC): 4.89E−6
- GI50 (A549/ATCC; Homo sapiens): 2050 nM
- CC50 (A549/ATCC; [2]): > 100000 nM
- Percent Growth (A549/ATCC; Log10 Concentration −4.0): −47%
- Percent Growth (A549/ATCC; Log10 Concentration −5.0): −41%
- Percent Growth (A549/ATCC; Log10 Concentration −6.0): 91%
- Percent Growth (A549/ATCC; Log10 Concentration −7.0): 94%
- Percent Growth (A549/ATCC; Log10 Concentration −8.0): 95%
- TGI (EKVX): 3.15E−6
- GI50 (EKVX; Homo sapiens): 1600 nM
- CC50 (EKVX; [2]): 6210 nM
- Percent Growth (EKVX; Log10 Concentration −4.0): −93%
- Percent Growth (EKVX; Log10 Concentration −5.0): −85%
- Percent Growth (EKVX; Log10 Concentration −6.0): 85%
- Percent Growth (EKVX; Log10 Concentration −7.0): 99%
- Percent Growth (EKVX; Log10 Concentration −8.0): 91%
- TGI (NCI-H226): 3.32E−6
- GI50 (NCI-H226; Homo sapiens): 953 nM
- CC50 (NCI-H226; [2]): 17400 nM
- Percent Growth (NCI-H226; Log10 Concentration −4.0): −65%
- Percent Growth (NCI-H226; Log10 Concentration −5.0): −45%
- Percent Growth (NCI-H226; Log10 Concentration −6.0): 49%
- Percent Growth (NCI-H226; Log10 Concentration −7.0): 93%
- Percent Growth (NCI-H226; Log10 Concentration −8.0): 91%
- TGI (COLO 205): 3.14E−6
- GI50 (COLO 205; Homo sapiens): 1700 nM
- CC50 (COLO 205; [2]): 5790 nM
- Percent Growth (COLO 205; Log10 Concentration −4.0): −87%
- Percent Growth (COLO 205; Log10 Concentration −5.0): −95%
- Percent Growth (COLO 205; Log10 Concentration −6.0): 93%
- Percent Growth (COLO 205; Log10 Concentration −7.0): 92%
- Percent Growth (COLO 205; Log10 Concentration −8.0): 98%
- TGI (HCT-15): 2.82E−6
- GI50 (HCT-15; Homo sapiens): 1500 nM
- CC50 (HCT-15; [2]): 5310 nM
- Percent Growth (HCT-15; Log10 Concentration −4.0): −100%
- Percent Growth (HCT-15; Log10 Concentration −5.0): −100%
- Percent Growth (HCT-15; Log10 Concentration −6.0): 82%
- Percent Growth (HCT-15; Log10 Concentration −7.0): 94%
- Percent Growth (HCT-15; Log10 Concentration −8.0): 92%
- TGI (KM12): 2.97E−6
- GI50 (KM12; Homo sapiens): 1620 nM
- CC50 (KM12; [2]): 5450 nM
- Percent Growth (KM12; Log10 Concentration −4.0): −100%
- Percent Growth (KM12; Log10 Concentration −5.0): −100%
- Percent Growth (KM12; Log10 Concentration −6.0): 90%
- Percent Growth (KM12; Log10 Concentration −7.0): 97%
- Percent Growth (KM12; Log10 Concentration −8.0): 105%
- TGI (SW-620): 2.44E−6
- GI50 (SW-620; Homo sapiens): 1210 nM
- CC50 (SW-620; [2]): 4940 nM
- Percent Growth (SW-620; Log10 Concentration −4.0): −100%
- Percent Growth (SW-620; Log10 Concentration −5.0): −100%
- Percent Growth (SW-620; Log10 Concentration −6.0): 63%
- Percent Growth (SW-620; Log10 Concentration −7.0): 90%
- Percent Growth (SW-620; Log10 Concentration −8.0): 96%
- TGI (SNB-75): 2.70E−6
- GI50 (SNB-75; Homo sapiens): 1400 nM
- LC50 (SNB-75; Homo sapiens): 5190 nM
- Percent Growth (SNB-75; Log10 Concentration −4.0): −100%
- Percent Growth (SNB-75; Log10 Concentration −5.0): −100%
- Percent Growth (SNB-75; Log10 Concentration −6.0): 76%
- Percent Growth (SNB-75; Log10 Concentration −7.0): 83%
- Percent Growth (SNB-75; Log10 Concentration −8.0): 108%
- TGI (SK-MEL-28): 2.91E−6
- GI50 (SK-MEL-28; Homo sapiens): 1570 nM
- LC50 (SK-MEL-28; Homo sapiens): 5400 nM
- Percent Growth (SK-MEL-28; Log10 Concentration −4.0): −100%
- Percent Growth (SK-MEL-28; Log10 Concentration −5.0): −100%
- Percent Growth (SK-MEL-28; Log10 Concentration −6.0): 87%
- Percent Growth (SK-MEL-28; Log10 Concentration −7.0): 89%
- Percent Growth (SK-MEL-28; Log10 Concentration −8.0): 93%
- TGI (UACC-257): 3.31E−6
- GI50 (UACC-257; Homo sapiens): 1720 nM
- CC50 (UACC-257; [2]): 6400 nM
- Percent Growth (UACC-257; Log10 Concentration −4.0): −96%
- Percent Growth (UACC-257; Log10 Concentration −5.0): −84%
- Percent Growth (UACC-257; Log10 Concentration −6.0): 91%
- Percent Growth (UACC-257; Log10 Concentration −7.0): 94%
- Percent Growth (UACC-257; Log10 Concentration −8.0): 96%
- TGI (UACC-62): 3.19E−6
- GI50 (UACC-62; Homo sapiens): 1670 nM
- CC50 (UACC-62; [2]): 6070 nM
- Percent Growth (UACC-62; Log10 Concentration −4.0): −93%
- Percent Growth (UACC-62; Log10 Concentration −5.0): −89%
- Percent Growth (UACC-62; Log10 Concentration −6.0): 90%
- Percent Growth (UACC-62; Log10 Concentration −7.0): 91%
- Percent Growth (UACC-62; Log10 Concentration −8.0): 93%
- TGI (NCl/ADR-RES): 3.32E−6
- GI50 (NCl/ADR-RES; Homo sapiens): 1810 nM
- CC50 (NCl/ADR-RES; [2]): 6090 nM
- Percent Growth (NCl/ADR-RES; Log10 Concentration −4.0): −93%
- Percent Growth (NCl/ADR-RES; Log10 Concentration −5.0): −91%
- Percent Growth (NCl/ADR-RES; Log10 Concentration −6.0): 99%
- Percent Growth (NCl/ADR-RES; Log10 Concentration −7.0): 102%
- Percent Growth (NCl/ADR-RES; Log10 Concentration −8.0): 96%
- TGI (DU-145): 3.04E−6
- GI50 (DU-145; Homo sapiens): 1670 nM
- CC50 (DU-145; [2]): 5510 nM
- Percent Growth (DU-145; Log10 Concentration −4.0): −100%
- Percent Growth (DU-145; Log10 Concentration −5.0): −100%
- Percent Growth (DU-145; Log10 Concentration −6.0): 93%
- Percent Growth (DU-145; Log10 Concentration −7.0): 95%
- Percent Growth (DU-145; Log10 Concentration −8.0): 103%
- In vitro potency against the viability of PC-3 cells [1]: greater than or similar to that of OSU-A9; also recorded: greater potency than OSU-A9 and OSU-A9F
- Suppression of the volume of PC-3 tumor growth (PC-3 xenograft tumor; 25 mg/kg per day by gavage): 44.0%
- Suppression of the volume of PC-3 tumor growth (PC-3 xenograft tumor; 50 mg/kg per day by gavage): 67.6%

From patent US8680133B2, “Alkyl indole-3-carbinol-derived antitumor agents” (The Ohio State University Research Foundation, priority 2009, dated 2014)
